# Measurements published in patent publication EP0755938B1, “Ligated polyoxometalates and method for their synthesis” (THE B.F. GOODRICH COMPANY, priority 1995, dated 1997).
# Experiments:
# [1] = Solubility of the isolated product in organic solvents, as noted in the synthesis examples; format: physicochemical
# [2] = Solubility test in hexane (Table 1); format: physicochemical
# [3] = Catalytic activity test: gel time in polymerizing dicyclopentadiene under RIM conditions; details: 4°C temperature rise from the initial temperature of 40°C; A and B components mixed in adiabatic chamber; Component B 0.66 wt. percent polyoxometalate catalyst
# Procedure: The ligated polyoxomolybdate produced in Examples 1-4 were tested for their activity in polymerizing dicyclopentadiene under conditions of a RIM procedure.
# Reaction injection molding components were prepared with the following recipes: Component A contained 88.2 wt. percent dicyclopentadiene/7.17 wt. percent cyclopentadiene trimer/3.52 wt. percent butadiene elastomer/0.5 wt. percent diethylaluminumchloride/0.25 wt. percent 2,4-dimethyl-3-pentanol/0.09 wt. percent n-propyl alcohol/0.18 wt. percent silicon tetrachloride.
# Component B contained 88.63 wt. percent dicyclopentadiene/7.19 wt. percent cyclopentadiene trimer 3.52 wt. percent butadiene elastomer/0.66 wt. percent polyoxometalate catalyst.
# The A and B components were reactivity tested using two pistons and a static mixer. The A and B components were first drawn into their respective piston of the reactivity tester. The components were then heated to 40°C inside the pistons. Next, the contents of the A and B component pistons of the reactivity tester were emptied through a static mixer into a disposable adiabatic chamber.
# The temperature increase during the polymerization in the adiabatic chamber was monitored. The gel time is defined as a 4°C temperature rise from the initial temperature of 40°C.
soluble in cyclohexane [1],soluble in hexane [1],soluble in dicyclopentadiene [1],Substance,also measured
readily soluble,,,[(i-C8H17)3NH]4{(C6H5P)2Mo5O21} [Example 4],soluble in hot hexane [1]: readily soluble; Hexane soluble ([2]; numeric bound): < 5%; gel time [3]: 2.5 min
,readily soluble,readily soluble,[(C12H25)3NH]4{[(HOCH2)2CHOP)]2Mo5O21} [Example 13],Hexane soluble ([2]; numeric bound): > 99%
soluble,soluble,,[(C12H25)3NH]4{(C6H5P)2Mo5O21} [Example 35],
,readily soluble,readily soluble,[(i-C10H21)3NH]4{(C6H5P)2Mo3O21} [Example 3],Hexane soluble ([2]; numeric bound): > 99%; gel time [3]: 3.4 min
soluble,soluble,soluble,[(C18H37)0.65C16H33)0.35(C14H29)0.05NH]4{(C6H5P)2Mo5O21} [Example 7],Hexane soluble ([2]; numeric bound): > 99%
soluble,soluble,,[(C12H25)3NH]4{(C6H5P)2Mo5O21} [Example 33],
soluble,,,[(C12H25)3NH]4{(CH3P)2Mo5O21} [Example 15],soluble in hot hexane [1]: soluble; Hexane soluble ([2]; result in words): soluble
,readily soluble,readily soluble,[(C12H25)3NH]4{(C6H5P)2Mo5O21} [Example 19],
soluble,soluble,,[(C12H25)3NH]4{[CH3CH(O)(COO)]2Mo4O12} [Example 22],
,soluble,soluble,[(C12H25)3NH]4{(C6H5P)2W5O21} [Example 9],Hexane soluble ([2]; numeric bound): > 99%
soluble,soluble,,[(C12H25)3NH]4{[C6H4(O)(COO)]2Mo4O12} [Example 26],
soluble,,,[(C12H25)3NH]4{(HP)2Mo5O21} [Example 20],
soluble,soluble,,[(C12H25)3NH]4{(HOP)2Mo5O21} [Example 38],

# Further lines, the substance ahead of its results:
Substance,soluble in cyclohexane [1],soluble in hexane [1],soluble in dicyclopentadiene [1],also measured
[(C12H25)3NH]2{[C6H4(O)(COO)]2Mo2O5} [Example 24],soluble,soluble,,
[(C12H25)3NH]4{(C6H5P)2Mo5O21} [Example 1],,,,gel time [3]: 4.4 min
[(C8H17)3NCH3]4{(C6H5P)2Mo5O21} [Example 5],soluble,,soluble,Hexane soluble ([2]; numeric bound): < 5%
[(C12H25)3NH]4{(C6H5P)2Mo5O21} [Example 2],,readily soluble,readily soluble,Hexane soluble ([2]; numeric bound): > 99%; gel time [3]: 3.7 min
[(C12H25)3NH]2{[C10H6(O)(COO)]2Mo2O5} [Example 27],soluble,soluble,,
[(C12H25)3NH4{(C6H5P)2Mo5O21} [Example 34],soluble,soluble,,
[(C12H25)3NH]4{(CH3)3CP)2Mo5O21} [Example 8],,,,soluble in cyclohexane/hexane mixture ([1]; cyclohexane/hexane mixture): soluble; Hexane soluble ([2]; result in words): soluble
[(C12H25)3NH]2{[(OOC)CH2CH(O)(COO)]2Mo4O12} [Example 30],soluble,soluble,,
[C12H25NH]4{[HOC(O)CH2CH2P]2Mo5O21]} [Example 14],,,,Hexane soluble ([2]; result in words): soluble
[(C12H25)3NH]4{(C6H5OP)2Mo5O21} [Example 12],,readily soluble,readily soluble,Hexane soluble ([2]; numeric bound): > 99%
[(C12H25)3NH]2{(H3NC6H4P)2Mo5O21} [Example 16],soluble,soluble,,Hexane soluble ([2]; result in words): soluble
[(C12H25)3NH]2{[CH3CH(O)(COO)]2Mo2O5} [Example 23],soluble,soluble,,
[(C12H25)3NH]4{(C6H5P)2Mo5O21} [Example 10],,readily soluble,readily soluble,
[(C12H25)3NH]2{(C6H4O2)2MoO2} [Example 32],soluble,,,
[(C12H25)3NH]2{[CH3C6H3(O)(COO)]2Mo2O5} [Example 28],soluble,soluble,,
[(C12H25)3NH]4{(C4H9P)2Mo5O21} [Example 17],readily soluble,,,soluble in hot hexane [1]: readily soluble; Hexane soluble ([2]; result in words): soluble
[(C12H25)3NH]2{[Br2C6H2(O)(COO)]2MoO2} [Example 29],soluble,soluble,,
